Experimental data: patent publication US20090325873A1, “HUMAN GLP-1 MIMETIBODIES, COMPOSITIONS, METHODS AND USES” (CENTOCOR, INC., priority 2006, published 2009)
Where no end group is shown, it is not given here.

Experiments:
[1] = test system: db/db mice; test: Blood glucose in db/db mice after intravenous dosing; format: in vivo; settings: six week old db/db mice, 0.5-4 hours post-dosing, MMB dose 100-fold lower than peptide dose
Experimental: Blood glucose was monitored 0.5, 1, 2, 3, and 4 hours post-dosing.

[2] = test system: female beagle dogs; test: Gastric emptying in normal dogs; format: in vivo; settings: lidamidine 0.63 mg/kg sc 60 minutes before the meal; GLP-1 MMB 0.1 mg/kg iv 15 minutes before the meal
Experimental: A gastric cannula was surgically implanted into female beagle dogs (10-15 kg) under general anesthesia and allowed to recover for at least 2 weeks. Dogs were fasted for 24 hours after which water was freely available. The gastric cannula was opened and gastric juice and food remnants were removed with 40-50 ml of lukewarm water. Groups of six dogs were dosed subcutaneously with lidamidine, an alpha2 agonist (0.63 mg/kg), 60 minutes before the meal, a positive control for delay of gastric emptying. […] Five minutes before the meal, the gastric cannula was opened to determine the amount of fluid present in stomach for baseline value and fluid was promptly reintroduced. Then a test meal consisting of 250 ml of a glucose solution (5 g/l) was administered via the cannula and allowed to remain in the stomach for 30 minutes. Gastric contents were drained from the stomach to measure total volume after 30 minutes. […] Glucose concentrations were evaluated for collected samples and used to determine the absolute amount of glucose remaining in the stomach at each time point. The percentage of glucose retained in the stomach was determined from the starting value and the concentration of glucose at each time point and plotted as a function of time. The time at which 50% of the gastric contents were retained was determined by fitting of the curves to a single exponential.

[3] = administered subcutaneously; cited from earlier work
[4] = test system: RINm cells; test: Insulin secretion in RINm cells; format: cell-based; settings: peptides 0-5 nM, mimetibodies 5 or 50 nM, ELISA
Experimental: To test the effect of GLP-1 MMB in insulin secretion, RINm cells were treated with increasing concentrations of GLP-1 (7-36) peptide (0-5 nM), exendin-4 peptide (0-5 nM), or various GLP-1 mimetibodies (5 or 50 nM) and the amount of insulin secreted was measured via ELISA. All GLP-1 MMBs tested had activities in stimulating insulin secretion in RINm cells (FIG. 6).

[5] = test system: GLP-1R−/− mice; test: Food intake in GLP-1R−/− mice; format: in vivo; settings: single iv GLP-1 MMB 1 mg/kg, exendin-4 0.07 mg/kg
[6] = test system: wild type mice; test: Glucose tolerance test (ipGTT) in wild type mice; format: in vivo; settings: single iv GLP-1 MMB 1 mg/kg, exendin-4 0.07 mg/kg
[7] = test system: wild type mice; test: Food intake in wild type mice; format: in vivo; settings: single iv GLP-1 MMB 1 mg/kg, exendin-4 0.07 mg/kg
[8] = test system: GLP-1R−/− mice; test: Gastric emptying in GLP-1R−/− mice; format: in vivo; settings: iv GLP-1 MMB 1 mg/kg, exendin-4 0.07 mg/kg
Experimental: (§1) Materials/Methods: Animals: Male GLP-1R−/− and age matched wild type mice were randomized into three treatment groups (n=5) based on body weight and fasting blood glucose. […] The next morning mice were re-fed for 1 h, food intake was recorded and the mice were deprived of food for the rest of the study. Mice were dosed intravenously as discussed above. Two hours post-dosing mice were euthanized. The stomach was exposed by laparotomy, ligated at both the pylorus and cardia and removed. The stomach content wet weight was measured. Equation 1 was used to calculate the percent of food remaining in the stomach.
(§2) (Stomach Content Wet Weight(g)/Food Intake(g))*100 Equation (1)

[9] = test system: wild type mice; test: Gastric emptying in wild type mice; format: in vivo; settings: iv GLP-1 MMB 1 mg/kg, exendin-4 0.07 mg/kg
Experimental: as §1, §2

CC[C@H](C)[C@H](NC(=O)[C@H](Cc1ccccc1)NC(=O)[C@H](CCC(=O)O)NC(=O)[C@H](CCCCN)NC(=O)[C@H](C)NC(=O)[C@H](C)NC(=O)[C@H](CCC(N)=O)NC(=O)CNC(=O)[C@H](CCC(=O)O)NC(=O)[C@H](CC(C)C)NC(=O)[C@H](Cc1ccc(O)cc1)NC(=O)[C@H](CO)NC(=O)[C@H](CO)NC(=O)[C@@H](NC(=O)[C@H](CC(=O)O)NC(=O)[C@H](CO)NC(=O)[C@@H](NC(=O)[C@H](Cc1ccccc1)NC(=O)[C@@H](NC(=O)CNC(=O)[C@H](CCC(=O)O)NC(=O)[C@H](C)NC(=O)[C@@H](N)Cc1c[nH]cn1)[C@@H](C)O)[C@@H](C)O)C(C)C)C(=O)N[C@@H](C)C(=O)N[C@@H](Cc1c[nH]c2ccccc12)C(=O)N[C@@H](CC(C)C)C(=O)N[C@H](C(=O)N[C@@H](CCCCN)C(=O)NCC(=O)N[C@@H](CCCNC(=N)N)C(N)=O)C(C)C [GLP-1 peptide]
blood glucose [1]: lowered blood glucose at 30 minutes

CN=C(N)NC(=O)Nc1c(C)cccc1C [lidamidine]
time in which 50% of the gastric contents were emptied [2]: 30.60 ± 6.47 min

GLP-1 (7-36) amide: GLP-1 (7-36) amide
time action [3]: about 50 minutes

GLP-1 (7-36) peptide: wide-type GLP-1 (7-36) peptide (HAEGTFTSDVSSYLEGQAAKEFIAWLVKGR; ends and bridges not checked; UniProt P01275 98-127, looked up)
stimulation of insulin secretion in RINm cells [4]: stimulates insulin release

exendin-4 [reference compound]
24 hour cumulative food intake [5]: no effect on food intake
area under the curve (AUC) of the ipGTT [6]: statistically significant reduction in the AUC
stimulation of insulin secretion in RINm cells [4]: stimulates insulin release
24 hour cumulative food intake vs CNTO1996 [7]: statistically significant reduction in food intake
gastric emptying 2 h after dosing [8]: no effect on gastric emptying
stomach content (percent of food remaining) 2 h after dosing vs CNTO1996 [9]: statistically significant increase in stomach content
